Source: patent publication US11059815B2, “Synthesis of small molecule histone deacetylase 6 degraders, compounds formed thereby, and pharmaceutical compositions containing them” (Wisconsin Alumni Research Foundation, priority 2018, dated 2021)

Biological target: T1, HDAC6 (Homo sapiens, UniProt Q9UBN7)
T1 construct: endogenous in cells; host or cells: MM1S (ATCC CRL-2974)
T1 sequence (Q9UBN7 1-1215): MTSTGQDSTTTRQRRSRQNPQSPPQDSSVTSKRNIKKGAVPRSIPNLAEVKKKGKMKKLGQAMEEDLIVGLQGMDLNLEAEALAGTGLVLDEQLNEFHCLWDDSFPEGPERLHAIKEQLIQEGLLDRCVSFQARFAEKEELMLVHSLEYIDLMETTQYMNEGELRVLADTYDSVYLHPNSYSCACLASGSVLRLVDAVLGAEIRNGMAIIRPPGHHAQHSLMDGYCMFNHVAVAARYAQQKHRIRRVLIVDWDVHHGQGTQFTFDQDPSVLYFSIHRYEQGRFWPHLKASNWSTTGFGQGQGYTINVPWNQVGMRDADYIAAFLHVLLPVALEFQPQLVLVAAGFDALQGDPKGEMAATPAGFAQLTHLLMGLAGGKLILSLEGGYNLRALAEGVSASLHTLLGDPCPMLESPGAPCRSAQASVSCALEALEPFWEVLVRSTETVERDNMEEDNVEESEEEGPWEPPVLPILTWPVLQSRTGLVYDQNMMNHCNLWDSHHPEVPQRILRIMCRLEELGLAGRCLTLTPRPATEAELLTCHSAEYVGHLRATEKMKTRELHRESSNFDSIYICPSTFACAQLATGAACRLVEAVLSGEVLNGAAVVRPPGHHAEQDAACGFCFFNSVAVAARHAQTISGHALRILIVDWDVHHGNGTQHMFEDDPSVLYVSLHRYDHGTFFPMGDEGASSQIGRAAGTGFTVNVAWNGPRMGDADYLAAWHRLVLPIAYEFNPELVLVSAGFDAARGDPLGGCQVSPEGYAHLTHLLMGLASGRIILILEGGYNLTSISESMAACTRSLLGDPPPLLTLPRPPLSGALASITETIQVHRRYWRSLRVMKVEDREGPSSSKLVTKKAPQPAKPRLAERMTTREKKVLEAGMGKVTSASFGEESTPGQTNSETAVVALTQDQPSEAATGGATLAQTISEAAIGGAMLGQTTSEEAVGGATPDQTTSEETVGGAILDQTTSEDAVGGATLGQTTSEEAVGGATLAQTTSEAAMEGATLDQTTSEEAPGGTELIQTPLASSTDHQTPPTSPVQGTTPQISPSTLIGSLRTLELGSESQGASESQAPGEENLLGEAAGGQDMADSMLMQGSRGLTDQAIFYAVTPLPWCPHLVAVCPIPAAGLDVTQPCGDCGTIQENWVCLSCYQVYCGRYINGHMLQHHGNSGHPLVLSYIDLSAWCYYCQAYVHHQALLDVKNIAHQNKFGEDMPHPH
Assay: In-cell ELISA of HDAC6 protein level in MM1S cells
Assay type: cell-based
Conditions: 6 h; for inhibition at 0.01 µM / inhibition at 0.1 µM / Dmax: MM1.S; for inhibition at 0.01 µM: n=3, read-out: Degradation (%) 10 nM; for inhibition at 0.1 µM: n=3, read-out: Degradation (%) 100 nM; for DC50 / Dmax: 0.1 nM to 1 μM, nonlinear fit, ± SD; for Dmax: read-out: Dmax (Vehicle %)
Description: FIG. 9 is a histogram depicting the results of screening of compounds for HDAC6 degradation activity by in-cell ELISA. MM1S cells were treated with compounds at 100 nM (blue bars) or 10 nM (red bars) for 6 h. Data was normalized to vehicle (DMSO)-treated group and the bar graph represents as mean of relative HDAC6 protein level (n=3) with ±SD as error bar. Statistical significance was analyzed by one-way ANOVA. Not significant (ns) P>0.05, *P≤0.05, **P≤0.01, ***P≤0.001, ****P≤0.0001.
FIG. 11 is a graph depicting dose response of selected degrader candidates. MM1S cells were treated for 6 h and analyzed by in-cell ELISA. Data was normalized to vehicle (DMSO)-treated group and dot plot represented as mean relative expression (n=3) with ±SD as error bar. Nonlinear fitting of inhibitor concentration vs. response (three parameters) was generated by GraphPad Prism with R2 from 0.97 to 0.99.
FIG. 15 is a histogram depicting relative HDAC6 expression as a function of linker length for compounds 3a through 3k as described in the Examples section, Part 2. Human MM1S cells were treated with 100 nM degraders for 6 hours and analyzed by in-cell ELISA assay.
FIG. 17 is a dose-response curve for degraders 3j (n=1), 3k (n=12) and 2, at concentrations from 1 nM to 300 nM for 4 h in MM1S. See the Examples, Part 2.
To screen the new series of degraders, an in-cell ELISA assay was developed and validated. The compounds were treated at 100 nM and 10 nM in MM1S cells for 6 h. Resulting cells were then fixed and analyzed by in-cell ELISA. […] Degraders including 1 at 100 nM degraded 73.5% to 85.0% of HDAC6 with minor difference. At 10 nM concentration of compounds, obvious structure-activity-relationship (SAR) was observed. […] For example, 12d, 12h, 12i, 12o and 12p all achieved about 70% degradation. Among the C4-linked series, 12d with medium length linker (5+1) achieved most degradation in sub-series 12a-e (m=1). […] Among C5-linked series, the potency of sub-series 12l-p (m=1) increased with the linker length. […] It appeared that both the distance and linking positions contributed to the degradation efficiency. The rigid triazole ring in the middle of the linker likely modulated the plasticity of degrader-bridged ternary complex.
The amount of cellular HDAC6 was measured in response to concentrations of compounds from 0.1 nM to 1 μM. […] The new degraders had single-digit nanomolar DC50, which was about 3 to 5 fold of improvement from 9.12 nM of degrader 1. […] As discussed above, most PROTACs were designed to avoid degrading other proteins except the targeted POIs. However, in these studies, it was hypothesized that HDAC6 degraders with IKZF degradation will have enhanced anti-proliferation effect MM1S cells.
MM1S cells were harvested and plated with 5×10^5 cells in 100 μL media per well 96-wells plate. After overnight seeding, 25 μL media containing 5× dosing concentration of the compounds or vehicle was added to each well. After 6-hour treatment at 37° C. in a humidified 5% CO2 atmosphere, cells were fixed by adding 125 μL 8% formaldehyde in TBS buffer (137 mM NaCl, 25 mM Tris, 2.7 mM potassium chloride, pH 7.6) and incubated at room temperature (RT) for 15 minutes. Removal of fixing solution was followed by once rinse and twice washes with TBS-T washing buffer (137 mM NaCl, 20 mM Tris, 0.1% Tween, pH 7.6). Cells were then permeabilized by adding 100 μL 0.1% Triton-X in TBS and incubated at RT for 15 minutes. Removal of permeabilizing solution was followed by once rinse and once wash with TBS-T. Cellular endogenous peroxidases were quenched by adding 100 μL 1% H2O2 in TBS and incubation at RT for 20 minutes. Removal of quenching solution was followed by once rinse and once wash with TBS-T. Non-specific binding sites were blocked by adding […] 5% BSA in TBS-T (with 0.02% NaN3) and incubation at 4° C. overnight. […]

[1] = 10 nM, 100% minus mean (± SD) relative HDAC6 expression
[2] = 100 nM, 100% minus mean (± SD) relative HDAC6 expression

| inhibition at 0.01 µM [1] | inhibition at 0.1 µM [2] | DC50 | Dmax | SMILES | Degradation (%) 10 nM (10 nM, 100% minus mean (± SD) relative HDAC6 expression, n=3) | Degradation (%) 100 nM (100 nM, 100% minus mean (± SD) relative HDAC6 expression, n=3) |
| --- | --- | --- | --- | --- | --- | --- |
| 66.1 ± 1.1% | 77.8 ± 1.7% |  |  | CCCCN(Cc1ccc(C(=O)NO)cc1)C(=O)Nc1ccc(OCCCCCCn2cc(CNc3cccc4c3C(=O)N(C3CCC(=O)NC3=O)C4=O)nn2)cc1 (stereo not drawn) [Compound 12e, 4-((1-butyl-3-(4-((6-(4-(((2-(2,6-dioxopiperidin-3-yl)-1,3-dioxoisoindolin-4-yl)amino)methyl)-1H-1,2,3-triazol-1-yl)hexyl)oxy)phenyl)ureido)methyl)-N-hydroxybenzamide] |  |  |
| 57.1 ± 1.4% | 81.4 ± 0.6% |  |  | CCCCN(Cc1ccc(C(=O)NO)cc1)C(=O)Nc1ccc(OCCn2cc(CNc3ccc4c(c3)C(=O)N(C3CCC(=O)NC3=O)C4=O)nn2)cc1 (stereo not drawn) [Compound 12l, 4-((1-butyl-3-(4-(2-(4-(((2-(2,6-dioxopiperidin-3-yl)-1,3-dioxoisoindolin-5-yl)amino)methyl)-1H-1,2,3-triazol-1-yl)ethoxy)phenyl)ureido)methyl)-N-hydroxybenzamide] |  |  |
| ~70% | 83.5 ± 0.5% |  |  | CCCCN(Cc1ccc(C(=O)NO)cc1)C(=O)Nc1ccc(OCCCCCCn2cc(CNc3ccc4c(c3)C(=O)N(C3CCC(=O)NC3=O)C4=O)nn2)cc1 (stereo not drawn) [Compound 12p, 4-((1-butyl-3-(4-((6-(4-(((2-(2,6-dioxopiperidin-3-yl)-1,3-dioxoisoindolin-5-yl)amino)methyl)-1H-1,2,3-triazol-1-yl)hexyl)oxy)phenyl)ureido)methyl)-N-hydroxybenzamide] |  |  |
| ~70% | 83.1 ± 1% | 2.54 ± 0.32 nM | 86.3 ± 1.67% | CCCCN(Cc1ccc(C(=O)NO)cc1)C(=O)Nc1ccc(OCCn2cc(CCCNc3cccc4c3C(=O)N(C3CCC(=O)NC3=O)C4=O)nn2)cc1 (stereo not drawn) [Compound 12i, 4-((1-butyl-3-(4-(2-(4-(3-((2-(2,6-dioxopiperidin-3-yl)-1,3-dioxoisoindolin-4-yl)amino)propyl)-1H-1,2,3-triazol-1-yl)ethoxy)phenyl)ureido)methyl)-N-hydroxybenzamide] |  |  |
| 64.8 ± 1% | 84.2 ± 0.4% |  |  | CCCCN(Cc1ccc(C(=O)NO)cc1)C(=O)Nc1ccc(OCCCn2cc(CCNc3cccc4c3C(=O)N(C3CCC(=O)NC3=O)C4=O)nn2)cc1 (stereo not drawn) [Compound 12g, 4-((1-butyl-3-(4-(3-(4-(2-((2-(2,6-dioxopiperidin-3-yl)-1,3-dioxoisoindolin-4-yl)amino)ethyl)-1H-1,2,3-triazol-1-yl)propoxy)phenyl)ureido)methyl)-N-hydroxybenzamide] |  |  |
| 49.3 ± 0.6% | 81.8 ± 0.9% |  |  | CCCCN(Cc1ccc(C(=O)NO)cc1)C(=O)Nc1ccc(OCCn2cc(CCNc3cccc4c3C(=O)N(C3CCC(=O)NC3=O)C4=O)nn2)cc1 (stereo not drawn) [Compound 12f, 4-((1-butyl-3-(4-(2-(4-(2-((2-(2,6-dioxopiperidin-3-yl)-1,3-dioxoisoindolin-4-yl)amino)ethyl)-1H-1,2,3-triazol-1-yl)ethoxy)phenyl)ureido)methyl)-N-hydroxybenzamide] |  |  |

The remaining lines, values behind:

| SMILES | inhibition at 0.01 µM [1] | inhibition at 0.1 µM [2] | DC50 | Dmax | Degradation (%) 10 nM (10 nM, 100% minus mean (± SD) relative HDAC6 expression, n=3) | Degradation (%) 100 nM (100 nM, 100% minus mean (± SD) relative HDAC6 expression, n=3) |
| --- | --- | --- | --- | --- | --- | --- |
| CCCCN(Cc1ccc(C(=O)NO)cc1)C(=O)Nc1ccc(OCCCCn2cc(CCCNc3cccc4c3C(=O)N(C3CCC(=O)NC3=O)C4=O)nn2)cc1 (stereo not drawn) [Compound 12k, 4-((1-butyl-3-(4-(4-(4-(3-((2-(2,6-dioxopiperidin-3-yl)-1,3-dioxoisoindolin-4-yl)amino)propyl)-1H-1,2,3-triazol-1-yl)butoxy)phenyl)ureido)methyl)-N-hydroxybenzamide] | 50.9 ± 2.2% | 75.7 ± 0.8% |  |  |  |  |
| CCCCN(Cc1ccc(C(=O)NO)cc1)C(=O)Nc1ccc(OCCn2cc(CNc3cccc4c3C(=O)N(C3CCC(=O)NC3=O)C4=O)nn2)cc1 (stereo not drawn) [Compound 12a, 4-((1-butyl-3-(4-(2-(4-(((2-(2,6-dioxopiperidin-3-yl)-1,3-dioxoisoindolin-4-yl)amino)methyl)-1H-1,2,3-triazol-1-yl)ethoxy)phenyl)ureido)methyl)-N-hydroxybenzamide] | 62.1 ± 1% | 81.3 ± 2.3% | 3.41 ± 0.52 nM | 88 ± 2.23% |  |  |
| CCCCN(Cc1ccc(C(=O)NO)cc1)C(=O)Nc1ccc(OCCCn2cc(CNc3cccc4c3C(=O)N(C3CCC(=O)NC3=O)C4=O)nn2)cc1 (stereo not drawn) [Compound 12b, 4-((1-butyl-3-(4-(3-(4-(((2-(2,6-dioxopiperidin-3-yl)-1,3-dioxoisoindolin-4-yl)amino)methyl)-1H-1,2,3-triazol-1-yl)propoxy)phenyl)ureido)methyl)-N-hydroxybenzamide] | 67.3 ± 0.8% | 84.1% |  |  |  |  |
| CCCCN(Cc1ccc(C(=O)NO)cc1)C(=O)Nc1ccc(OCCCCn2cc(CNc3cccc4c3C(=O)N(C3CCC(=O)NC3=O)C4=O)nn2)cc1 (stereo not drawn) [Compound 12n, 4-((1-butyl-3-(4-(4-(4-(((2-(2,6-dioxopiperidin-3-yl)-1,3-dioxoisoindolin-4-yl)amino)methyl)-1H-1,2,3-triazol-1-yl)butoxy)phenyl)ureido)methyl)-N-hydroxybenzamide] |  |  |  |  | 63.3 ± 0.8% | 80.9 ± 0.4% |
